Laboratory results taken from the NIST ThermoML archive (doi:10.1021/je0301794).

Columns and labels:
[1] = excess molar enthalpy (molar enthalpy of mixing); xn = mol fraction of the nth substance listed; conditions: 318.15 K, 101.3 kPa, Liquid
[2] = xn = mol fraction of the nth substance listed; conditions: 101.3 kPa, Liquid

CCCCCCCCC [nonane] + COC(=O)OC
[1]
Conditions | excess molar enthalpy [kJ/mol]
x2 = 0 | 0
x2 = 0.1291 | 1
x2 = 0.2483 | 1.66
x2 = 0.3498 | 2.05
x2 = 0.4426 | 2.25
x2 = 0.5099 | 2.3
x2 = 0.573 | 2.3
x2 = 0.627 | 2.23
x2 = 0.6622 | 2.15
x2 = 0.6743 | 2.13
x2 = 0.7043 | 2.05
x2 = 0.748 | 1.9
x2 = 0.7814 | 1.79
x2 = 0.8236 | 1.58
x2 = 0.8663 | 1.32
x2 = 0.9069 | 1.04
x2 = 0.9415 | 0.754
x2 = 0.9752 | 0.41

[2]
Conditions | mass density [kg/m3]
293.15 K, x2 = 0 | 717.7
293.15 K, x2 = 0.0444 | 724.2
293.15 K, x2 = 0.0909 | 731.4
293.15 K, x2 = 0.1838 | 747.3
293.15 K, x2 = 0.28 | 766.3
293.15 K, x2 = 0.3783 | 789
293.15 K, x2 = 0.4778 | 815.8
293.15 K, x2 = 0.5789 | 847.5
293.15 K, x2 = 0.6816 | 885.9
293.15 K, x2 = 0.7851 | 932.5
293.15 K, x2 = 0.8921 | 991.9
293.15 K, x2 = 0.9461 | 1028.3
298.15 K, x2 = 0 | 713.9
298.15 K, x2 = 0.0247 | 717.5
298.15 K, x2 = 0.083 | 726.1
298.15 K, x2 = 0.1221 | 732.4
298.15 K, x2 = 0.1812 | 742.6
298.15 K, x2 = 0.2278 | 751.4
298.15 K, x2 = 0.317 | 770
298.15 K, x2 = 0.3986 | 789.4
298.15 K, x2 = 0.4701 | 808.5
298.15 K, x2 = 0.5281 | 825.7
298.15 K, x2 = 0.601 | 849.8
298.15 K, x2 = 0.6553 | 869.8
298.15 K, x2 = 0.7064 | 890.4
298.15 K, x2 = 0.7517 | 910.5
298.15 K, x2 = 0.7982 | 933
298.15 K, x2 = 0.8404 | 955.5
298.15 K, x2 = 0.8725 | 973.9
298.15 K, x2 = 0.9073 | 995.7
298.15 K, x2 = 0.9371 | 1015.5
298.15 K, x2 = 0.9711 | 1040.4
303.15 K, x2 = 0 | 710.1
303.15 K, x2 = 0.0444 | 716.3
303.15 K, x2 = 0.0909 | 723.3
303.15 K, x2 = 0.1838 | 738.9
303.15 K, x2 = 0.28 | 757.5
303.15 K, x2 = 0.3783 | 779.7
303.15 K, x2 = 0.4778 | 805.9
303.15 K, x2 = 0.5789 | 837
303.15 K, x2 = 0.6816 | 874.8
303.15 K, x2 = 0.7851 | 920.7
303.15 K, x2 = 0.8921 | 979.7
303.15 K, x2 = 0.9461 | 1015.6
313.15 K, x2 = 0 | 702.2
313.15 K, x2 = 0.0444 | 708.3
313.15 K, x2 = 0.0909 | 715.1
313.15 K, x2 = 0.1838 | 730.4
313.15 K, x2 = 0.28 | 748.7
313.15 K, x2 = 0.3783 | 770.5
313.15 K, x2 = 0.4778 | 796
313.15 K, x2 = 0.5789 | 826.7
313.15 K, x2 = 0.6816 | 864
313.15 K, x2 = 0.7851 | 909.4
313.15 K, x2 = 0.8921 | 967.3
313.15 K, x2 = 0.9461 | 1002.8
318.15 K, x2 = 0 | 698.1
318.15 K, x2 = 0.0409 | 703.8
318.15 K, x2 = 0.0763 | 709
318.15 K, x2 = 0.1089 | 714
318.15 K, x2 = 0.1249 | 716.6
318.15 K, x2 = 0.1452 | 719.9
318.15 K, x2 = 0.1957 | 728.5
318.15 K, x2 = 0.2309 | 735
318.15 K, x2 = 0.3153 | 751.7
318.15 K, x2 = 0.3894 | 768.3
318.15 K, x2 = 0.4732 | 789.6
318.15 K, x2 = 0.5442 | 810.1
318.15 K, x2 = 0.6088 | 831.2
318.15 K, x2 = 0.6356 | 840.8
318.15 K, x2 = 0.711 | 870.1
318.15 K, x2 = 0.761 | 891.8
318.15 K, x2 = 0.787 | 904
318.15 K, x2 = 0.8304 | 926
318.15 K, x2 = 0.8802 | 954.1
318.15 K, x2 = 0.9335 | 987.7
318.15 K, x2 = 0.9414 | 993.1
318.15 K, x2 = 0.972 | 1015
